Read-outs that look alike come from different tables or passages of the source.
Tests used:
[1] = target: GSK3β (Homo sapiens, UniProt P49841); experiment: GSK3β kinase assay (Caliper LabChip, fluoresceinated peptide substrate); format: biochemical
Method: (§1) The kinase assay was performed in V-bottom 384-well plates. […] The reaction was incubated at room temperature for 20 hours and terminated by adding 45 μl of 35 mM EDTA to each sample. The reaction mixture was analyzed on the Caliper LabChip3000 (Caliper, Hopkinton, Mass.) by electrophoretic separation of the unphosphorylated substrate and phosphorylated product. […] Compounds were dissolved at 10 mM in dimethylsulfoxide (DMSO) and evaluated at eleven concentrations. IC50 values were derived by non-linear regression analysis.

[2] = target: GSK3α (Homo sapiens, UniProt P49840); experiment: GSK3α kinase assay (Caliper LabChip, fluoresceinated peptide substrate); format: biochemical
Method: as §1

[3] = test system: pTau; experiment: pTau assay (no method described); format: cell-based
[4] = first value of the cell, 250 pM enzyme, 20 uM ATP, 20 hours at room temperature, read-out: GSK3β/α (nM): GSK3β IC50

GSK3β, sequence (P49841 whole entry, species assumed): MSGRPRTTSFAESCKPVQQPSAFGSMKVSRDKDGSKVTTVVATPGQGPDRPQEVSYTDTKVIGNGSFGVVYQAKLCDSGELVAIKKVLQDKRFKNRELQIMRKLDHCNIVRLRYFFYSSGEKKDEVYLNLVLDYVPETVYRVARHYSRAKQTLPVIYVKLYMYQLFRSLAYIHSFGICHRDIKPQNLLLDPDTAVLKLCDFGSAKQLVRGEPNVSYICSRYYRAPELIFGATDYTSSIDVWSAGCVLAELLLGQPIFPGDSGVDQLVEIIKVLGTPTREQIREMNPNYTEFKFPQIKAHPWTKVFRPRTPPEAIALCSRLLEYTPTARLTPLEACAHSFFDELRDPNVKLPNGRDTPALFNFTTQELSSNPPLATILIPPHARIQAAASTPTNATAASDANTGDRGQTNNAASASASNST
GSK3α, sequence (P49840 whole entry, species assumed): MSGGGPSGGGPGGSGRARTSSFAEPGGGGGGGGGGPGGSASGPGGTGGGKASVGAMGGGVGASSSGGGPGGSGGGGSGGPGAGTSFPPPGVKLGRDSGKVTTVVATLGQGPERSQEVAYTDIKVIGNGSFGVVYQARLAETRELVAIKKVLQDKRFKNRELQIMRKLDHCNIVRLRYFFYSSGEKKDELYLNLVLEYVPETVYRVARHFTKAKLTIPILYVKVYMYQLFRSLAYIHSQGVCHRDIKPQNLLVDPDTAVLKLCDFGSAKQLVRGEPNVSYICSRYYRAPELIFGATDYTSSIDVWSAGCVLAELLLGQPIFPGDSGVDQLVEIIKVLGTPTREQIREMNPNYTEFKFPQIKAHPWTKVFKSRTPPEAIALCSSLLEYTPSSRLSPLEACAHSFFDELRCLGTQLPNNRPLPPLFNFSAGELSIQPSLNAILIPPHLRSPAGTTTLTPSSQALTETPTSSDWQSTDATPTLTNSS

Compound | IC50 [1, 4] [nM] | IC50 [2] [nM] | IC50 [3] [nM] | IC50 [1] [nM] | IC50 ([2]; second value of the cell, 250 pM enzyme, 20 uM ATP, 20 hours at room temperature, read-out: GSK3β/α (nM): GSK3α IC50) [nM]
CC1(C)CN(c2ccncc2NC(=O)c2ccnc(Nc3ccc(C(F)(F)F)cn3)c2)CCO1 [Example 22, N-(4-(2,2-Dimethylmorpholino)pyridin-3-yl)-2-((5-(trifluoromethyl)pyridin-2-yl)amino)isonicotinamide] | 0.48 | 0.31 | 18 | – | –
O=C(Nc1cnccc1-c1ccccc1)c1ccnc(Nc2ccc(Br)cn2)c1 [Example 63, 2-((5-Bromopyridin-2-yl)amino)-N-(4-phenylpyridin-3-yl)isonicotinamide] | 9.3 | 3.4 | 150 | – | –
N#Cc1cccc(Nc2cc(C(=O)Nc3cncc(-c4ccc(C#N)c(F)c4)c3)ccn2)n1 [Example 165, N-(5-(4-Cyano-3-fluorophenyl)pyridin-3-yl)-2-((6-cyanopyridin-2-yl)amino)isonicotinamide] | 1.2 | 0.4 | 84 | – | –
O=C(Nc1cnccc1-c1ccc(F)cc1)c1ccnc(Nc2ccc(C(F)(F)F)cn2)c1 [Example 50, N-(4-(4-Fluorophenyl)pyridin-3-yl)-2-((5-(trifluoromethyl)pyridin-2-yl)amino)isonicotinamide] | 2.1 | 0.86 | 54 | – | –
O=C(Nc1cnc(Cl)cc1C1(O)CCOCC1)c1ccnc(Nc2ccc(Cl)cn2)c1 [Example 111, N-(6-Chloro-4-(4-hydroxytetrahydro-2H-pyran-4-yl)pyridin-3-yl)-2-((5-chloropyridin-2-yl)amino)isonicotinamide] | – | – | 530 | 2.6 | 1.4
O=C(Nc1cnccc1SCC(F)(F)F)c1ccnc(Nc2ccc(C(F)(F)F)cn2)c1 [Example 171, N-(4-((2,2,2-Trifluoroethyl)thio)pyridin-3-yl)-2-((5-(trifluoromethyl)pyridin-2-yl)amino)isonicotinamide] | 1.2 | 0.61 | 47 | – | –
Cc1cccc(Nc2cc(C(=O)Nc3cncc(-c4ccccc4F)c3)ccn2)n1 [Example 137, N-(5-(2-Fluorophenyl)pyridin-3-yl)-2-((6-methylpyridin-2-yl)amino)isonicotinamide] | 7.1 | 5.6 | 2700 | – | –
CC(C)C1(c2cc(Cl)ncc2NC(=O)c2ccnc(Nc3ccc(C(F)(F)F)cn3)c2)OCCO1 [Example 83, N-(6-Chloro-4-(2-isopropyl-1,3-dioxolan-2-yl)pyridin-3-yl)-2-((5-(trifluoromethyl)pyridin-2-yl)amino)isonicotinamide] | 1.1 | 0.55 | 57 | – | –
CC1(COc2cncc(NC(=O)c3ccnc(Nc4cccc(C(F)(F)F)n4)c3)c2)CC1 [Example 125, N-(5-((1-Methylcyclopropyl)methoxy)pyridin-3-yl)-2-((6-(trifluoromethyl)pyridin-2-yl)amino)isonicotinamide] | – | 3.8 | 2200 | 12 | –
O=C(Nc1cncc(-c2ccccc2F)c1)c1ccnc(Nc2ccc3ccccc3n2)c1 [Example 142, N-(5-(2-Fluorophenyl)pyridin-3-yl)-2-(quinolin-2-ylamino)isonicotinamide] | 23 | 5.6 | 2100 | – | –
O=C(Nc1cncc(-c2cccc(F)c2F)c1)c1ccnc(Nc2cccc(C(F)(F)F)n2)c1 [Example 147, N-(5-(2,3-Difluorophenyl)pyridin-3-yl)-2-((6-(trifluoromethyl)pyridin-2-yl)amino)isonicotinamide] | 2.3 | 44 | 380 | – | –
O=C(Nc1cncc(-c2ccccc2F)c1)c1ccnc(Nc2ccc3cnccc3n2)c1 [Example 153, 2-((1,6-Naphthyridin-2-yl)amino)-N-(5-(2-fluorophenyl)pyridin-3-yl)isonicotinamide] | 1.5 | 0.45 | 200 | – | –
O=C(Nc1cncc(-c2ccccc2F)c1)c1ccnc(Nc2ccc(F)cn2)c1 [Example 131, N-(5-(2-Fluorophenyl)pyridin-3-yl)-2-((5-fluoropyridin-2-yl)amino)isonicotinamide] | – | 3 | 640 | 6.1 | –
N#CC1(c2ccc(Nc3cc(C(=O)Nc4cnccc4-c4ccccc4)ccn3)nc2)CC1 [Example 62, 2-((5-(1-Cyanocyclopropyl)pyridin-2-yl)amino)-N-(4-phenylpyridin-3-yl)isonicotinamide] | 0.62 | 0.29 | 37 | – | –
CCCSc1ccncc1NC(=O)c1ccnc(Nc2ccc(C(F)(F)F)cn2)c1 [Example 170, N-(4-(Propylthio)pyridin-3-yl)-2-((5-(trifluoromethyl)pyridin-2-yl)amino)isonicotinamide] | 0.75 | 0.21 | 49 | – | –
Cc1cc(-c2ccccc2)c(NC(=O)c2ccnc(Nc3ccc(C(F)(F)F)cn3)c2)cn1 [Example 68, N-(6-Methyl-4-phenylpyridin-3-yl)-2-((5-(trifluoromethyl)pyridin-2-yl)amino)isonicotinamide] | 12 | 5.7 | 1010 | – | –
O=C(Nc1cnccc1C1CCCCO1)c1ccnc(Nc2ccc(C(F)(F)F)cn2)c1 (stereo not shown) [Example 41, N-(4-(Tetrahydro-2H-pyran-2-yl)pyridin-3-yl)-2-((5-(trifluoromethyl)pyridin-2-yl)amino)isonicotinamide] | 13 | – | 120 | – | –
N#Cc1ccc(-c2cncc(NC(=O)c3ccnc(Nc4cccc(C#N)n4)c3)c2)cc1 [Example 162, N-(5-(4-Cyanophenyl)pyridin-3-yl)-2-((6-cyanopyridin-2-yl)amino)isonicotinamide] | – | 2.4 | – | 3.5 | –
Cc1cc(C2(C3CC3)OCCO2)c(NC(=O)c2ccnc(Nc3ccc(C(F)(F)F)cn3)c2)cn1 [Example 105, N-(4-(2-Cyclopropyl-1,3-dioxolan-2-yl)-6-methylpyridin-3-yl)-2-((5-(trifluoromethyl)pyridin-2-yl)amino)isonicotinamide] | – | – | 2 | – | –
O=C(Nc1cnccc1-c1ccccn1)c1ccnc(Nc2ccc(C(F)(F)F)cn2)c1 [Example 43, N-([2,4′-Bipyridin]-3′-yl)-2-((5-(trifluoromethyl)pyridin-2-yl)amino)isonicotinamide] | 0.77 | 0.59 | – | – | –
O=C(Nc1cnc(F)cc1OCC(F)(F)F)c1ccnc(Nc2ccc(C(F)(F)F)cn2)c1 [Example 69, N-(6-Fluoro-4-(2,2,2-trifluoroethoxy)pyridin-3-yl)-2-((5-(trifluoromethyl)pyridin-2-yl)amino)isonicotinamide] | 2.6 | – | 165 | – | –

More lines, main results first:

IC50 [1, 4] [nM] | Compound | IC50 [2] [nM] | IC50 [3] [nM] | IC50 [1] [nM] | IC50 ([2]; second value of the cell, 250 pM enzyme, 20 uM ATP, 20 hours at room temperature, read-out: GSK3β/α (nM): GSK3α IC50) [nM]
2.9 | O=C(Nc1cnncc1C(=O)C1CC1)c1ccnc(Nc2ccc(C(F)(F)F)cn2)c1 [Example 202, N-(5-(Cyclopropanecarbonyl)pyridazin-4-yl)-2-((5-(trifluoromethyl)pyridin-2-yl)amino)isonicotinamide] | 1.1 | – | – | –
4.5 | CCc1nc(Nc2cc(C(=O)Nc3cncc(-c4ccccc4F)c3)ccn2)ccc1C#N [Example 148, 2-((5-Cyano-6-ethylpyridin-2-yl)amino)-N-(5-(2-fluorophenyl)pyridin-3-yl)isonicotinamide] | – | 360 | – | –
4.3 | CC(C)[S+]([O-])c1ccncc1NC(=O)c1ccnc(Nc2ccc(C(F)(F)F)cn2)c1 (stereo not shown) [Example 179, N-(4-(isopropylsulfinyl)pyridin-3-yl)-2-((5-(trifluoromethyl)pyridin-2-yl)amino)isonicotinamide] | 1.2 | – | – | –
8.7 | C=CCOc1ccc(-c2cnncc2NC(=O)c2ccnc(Nc3ccc(C(F)(F)F)cn3)c2)cc1 [Example 199, N-(5-(4-(Allyloxy)phenyl)pyridazin-4-yl)-2-((5-(trifluoromethyl)pyridin-2-yl)amino)isonicotinamide] | – | 470 | – | –
2.7 | COC(=O)c1cccc(Nc2cc(C(=O)Nc3cncc(-c4ccccc4F)c3)ccn2)n1 [Example 149, Methyl 6-((4-((5-(2-fluorophenyl)pyridin-3-yl)carbamoyl)pyridin-2-yl)amino)picolinate] | – | 1700 | – | –
7.3 | N#Cc1cnn(-c2cncc(NC(=O)c3ccnc(Nc4ccc(C(F)(F)F)cn4)c3)c2)c1 [Example 118, N-(5-(4-Cyano-1H-pyrazol-1-yl)pyridin-3-yl)-2-((5-(trifluoromethyl)pyridin-2-yl)amino)isonicotinamide] | – | 360 | – | –
3.5 | O=C(Nc1cncc(-c2ccccc2F)c1)c1ccnc(Nc2cccc(Cl)n2)c1 [Example 150] | – | 1100 | – | –
1.5 | O=C(Nc1cnccc1OCC(F)(F)F)c1cc(Nc2ccc(C(F)(F)F)cn2)ncc1F [Example 168, 5-Fluoro-N-(4-(2,2,2-trifluoroethoxy)pyridin-3-yl)-2-((5-(trifluoromethyl)pyridin-2-yl)amino)isonicotinamide] | 0.73 | – | – | –
16 | NC(=O)c1ccc(Nc2cc(C(=O)Nc3cncc(-c4ccccc4F)c3)ccn2)nc1 [Example 160, 6-((4-((5-(2-Fluorophenyl)pyridin-3-yl)carbamoyl)pyridin-2-yl)amino)nicotinamide] | 7.6 | – | – | –
1.2 | CS(=O)(=O)c1ccncc1NC(=O)c1ccnc(Nc2ccc(C(F)(F)F)cn2)c1 [Example 181, N-(4-(Methylsulfonyl)pyridin-3-yl)-2-((5-(trifluoromethyl)pyridin-2-yl)amino)isonicotinamide] | 0.77 | – | – | –
23 | COC(=O)/C=C/c1ccc(Nc2cc(C(=O)Nc3cncc(-c4ccccc4F)c3)ccn2)nc1 [Example 161] | 8 | – | – | –
